For this experiment, the target named is recombinant human ACC2 (Homo sapiens (Human), UniProt O00763). The experiment is described as follows: Measurement of inhibitory activity on human ACC2 (MALDI-TOF MS, acetyl CoA to malonyl CoA conversion). The format is biochemical. The following applies: Tables 155-159. A digest of the protocol: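 His-tagged human ACC2 (residues 27–2458) from baculovirus-infected Sf-9 cells was preincubated 1 h in pH 7.4 HEPES-KOH buffer with MgCl2, 6-10 mM potassium citrate, glutathione and BSA. Substrate solution held 1 mM ATP, 0.8 mM acetyl CoA and 25-50 mM bicarbonate. After 1–3 h at room temperature, malonyl CoA/(malonyl+acetyl CoA) was read by negative-mode MALDI-TOF MS; citrate, bicarbonate and time varied by enzyme lot.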
Sequence of recombinant human ACC2 (O00763 27-2458): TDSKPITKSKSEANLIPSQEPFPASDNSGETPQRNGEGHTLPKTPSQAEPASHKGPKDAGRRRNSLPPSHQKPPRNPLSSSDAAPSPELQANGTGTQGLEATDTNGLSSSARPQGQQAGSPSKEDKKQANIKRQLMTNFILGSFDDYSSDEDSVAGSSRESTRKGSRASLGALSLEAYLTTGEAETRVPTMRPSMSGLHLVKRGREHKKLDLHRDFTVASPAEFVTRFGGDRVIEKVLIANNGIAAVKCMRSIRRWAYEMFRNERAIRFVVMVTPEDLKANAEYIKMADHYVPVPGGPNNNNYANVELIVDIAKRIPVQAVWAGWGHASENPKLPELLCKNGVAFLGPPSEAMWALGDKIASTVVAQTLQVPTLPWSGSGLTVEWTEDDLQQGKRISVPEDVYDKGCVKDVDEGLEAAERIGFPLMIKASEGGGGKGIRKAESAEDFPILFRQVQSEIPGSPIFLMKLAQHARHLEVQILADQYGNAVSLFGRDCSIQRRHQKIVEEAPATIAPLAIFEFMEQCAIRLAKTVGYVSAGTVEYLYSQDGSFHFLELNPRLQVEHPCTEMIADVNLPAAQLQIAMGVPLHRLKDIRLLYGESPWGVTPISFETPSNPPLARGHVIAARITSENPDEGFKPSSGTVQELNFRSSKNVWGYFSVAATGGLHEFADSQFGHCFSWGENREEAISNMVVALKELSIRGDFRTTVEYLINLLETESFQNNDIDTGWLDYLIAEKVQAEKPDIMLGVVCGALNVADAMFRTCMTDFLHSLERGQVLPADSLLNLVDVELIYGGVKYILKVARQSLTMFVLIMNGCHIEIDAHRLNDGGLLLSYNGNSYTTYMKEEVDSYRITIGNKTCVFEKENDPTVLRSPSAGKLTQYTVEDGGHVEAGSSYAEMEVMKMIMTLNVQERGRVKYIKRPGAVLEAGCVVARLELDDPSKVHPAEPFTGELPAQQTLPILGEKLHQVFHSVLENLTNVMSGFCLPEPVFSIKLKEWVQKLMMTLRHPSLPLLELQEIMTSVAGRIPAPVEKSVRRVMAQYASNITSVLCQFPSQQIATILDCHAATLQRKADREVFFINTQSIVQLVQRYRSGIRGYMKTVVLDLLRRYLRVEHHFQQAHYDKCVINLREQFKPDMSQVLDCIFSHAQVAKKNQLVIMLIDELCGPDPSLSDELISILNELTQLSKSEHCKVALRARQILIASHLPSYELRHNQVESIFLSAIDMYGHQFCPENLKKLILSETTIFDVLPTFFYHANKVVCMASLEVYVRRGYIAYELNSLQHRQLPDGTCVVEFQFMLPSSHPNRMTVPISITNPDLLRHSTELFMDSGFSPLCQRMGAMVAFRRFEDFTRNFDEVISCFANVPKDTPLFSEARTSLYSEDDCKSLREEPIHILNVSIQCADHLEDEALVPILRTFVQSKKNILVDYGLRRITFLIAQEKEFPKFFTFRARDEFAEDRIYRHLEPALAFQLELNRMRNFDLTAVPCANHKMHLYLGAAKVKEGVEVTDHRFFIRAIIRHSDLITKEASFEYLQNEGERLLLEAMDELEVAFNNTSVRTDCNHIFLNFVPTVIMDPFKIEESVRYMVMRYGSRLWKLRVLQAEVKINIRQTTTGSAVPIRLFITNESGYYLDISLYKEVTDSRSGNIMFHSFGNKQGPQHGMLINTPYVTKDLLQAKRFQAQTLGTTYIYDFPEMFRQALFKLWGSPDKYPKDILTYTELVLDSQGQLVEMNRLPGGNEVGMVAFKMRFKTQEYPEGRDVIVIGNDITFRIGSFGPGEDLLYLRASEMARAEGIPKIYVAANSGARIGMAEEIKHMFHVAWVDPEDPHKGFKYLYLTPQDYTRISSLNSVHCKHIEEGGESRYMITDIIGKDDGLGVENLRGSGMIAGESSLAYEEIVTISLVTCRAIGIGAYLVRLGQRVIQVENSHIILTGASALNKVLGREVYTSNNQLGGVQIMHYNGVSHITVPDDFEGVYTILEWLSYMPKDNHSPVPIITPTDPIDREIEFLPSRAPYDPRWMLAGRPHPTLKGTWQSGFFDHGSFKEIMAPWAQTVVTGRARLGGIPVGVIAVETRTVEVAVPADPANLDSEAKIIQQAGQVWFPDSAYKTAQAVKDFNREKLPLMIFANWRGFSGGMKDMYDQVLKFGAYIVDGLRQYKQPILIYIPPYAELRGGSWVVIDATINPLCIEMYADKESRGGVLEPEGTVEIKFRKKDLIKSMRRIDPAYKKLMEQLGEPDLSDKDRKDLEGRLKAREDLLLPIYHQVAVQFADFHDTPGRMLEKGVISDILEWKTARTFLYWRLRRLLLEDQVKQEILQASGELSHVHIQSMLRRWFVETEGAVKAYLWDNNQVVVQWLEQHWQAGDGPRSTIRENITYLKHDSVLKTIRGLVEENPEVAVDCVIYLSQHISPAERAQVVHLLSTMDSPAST

By IC50 is commonly meant the concentration that inhibits the measured activity by half.

In the case of `CC(=O)N[C@@H](C)CO[C@H]1C[C@H](COc2nccc(OC3CCCCC3)c2Cl)C1` [Compound I-368], the IC50 is 48 nM.

With `CC(=O)N[C@@H](C)CO[C@H]1C[C@H](COc2nccc(OCC3CC3C)c2Cl)C1` (stereo partly drawn) [Compound I-369], the IC50 came to 19 nM.

For `CC(=O)N[C@@H](C)CO[C@H]1C[C@H](COc2nccc(OCC3(C)CC3)c2Cl)C1` [Compound I-370], the IC50 worked out at 13 nM.

Consider `CC(=O)N[C@@H](C)CO[C@H]1C[C@H](COc2nccc(OCC3(C#N)CC3)c2Cl)C1` [Compound I-371], for which the IC50 was determined as 198 nM.

Regarding `CC(=O)N[C@@H](C)CO[C@H]1C[C@H](COc2nccc(OCC(C)(C)C)c2Cl)C1` [Compound I-372], the IC50 turned out to be 13 nM.

On to `COCCOc1ccnc(OC[C@H]2C[C@H](OC[C@H](C)NC(C)=O)C2)c1Cl` [Compound I-373], for which the IC50 was determined as 894 nM.

For the molecule `CC(=O)N[C@@H](C)CO[C@H]1C[C@H](COc2nccc(OCC3COC3)c2Cl)C1` [Compound I-374], the 50% inhibitory concentration (IC50) amounted to 637 nM.

On to `CC(=O)N[C@@H](C)CO[C@H]1C[C@H](COc2nccc(N3CCC(F)(F)CC3)c2Cl)C1` [Compound I-375], for which the 50% inhibitory concentration (IC50) worked out at 102 nM.

Regarding `CC(=O)N[C@@H](C)CO[C@H]1C[C@H](COc2ncnc(OCc3ccccc3)c2Cl)C1` [Compound I-376], the IC50 amounted to 7 nM.

For the molecule `CC(=O)N[C@@H](C)CO[C@H]1C[C@H](COc2ncnc(OCc3ccccn3)c2Cl)C1` [Compound I-377], the IC50 came out at 39 nM.

Consider `CC(=O)N[C@@H](C)CO[C@H]1C[C@H](COc2nccc(N3CCCC3)c2C)C1` [Compound I-378], for which the IC50 is 144 nM.

Consider `COc1c(-c2ccc(F)cc2)ccnc1OC[C@H]1C[C@H](OC[C@H](C)NC(C)=O)C1` [Compound I-379], for which the IC50 turned out to be 258 nM.

On to `CC(=O)N[C@@H](C)CO[C@H]1C[C@H](COc2nccc(-c3ncc(C(F)(F)F)cn3)c2C)C1` [Compound I-380], for which the IC50 is 59 nM.

As to `CC(=O)N[C@@H](C)CO[C@H]1C[C@H](COc2nccc3c2cnn3CC2CC2)C1` [Compound I-381], the IC50 came out at 155 nM.

As for `CC(=O)N[C@@H](C)CO[C@H]1C[C@H](COc2nccc3c2OCCN3Cc2ccccc2)C1` [Compound I-382], the IC50 was 176 nM.

As to `CC(=O)N[C@@H](C)CO[C@H]1C[C@H](COc2ncnc(OCc3ccccc3)c2F)C1` [Compound I-383], the IC50 turned out to be 8 nM.

With `CC(=O)N[C@@H](C)CO[C@H]1C[C@H](COc2ncnc(OCc3cccc(Cl)n3)c2Cl)C1` [Compound I-384], the concentration for half-maximal inhibition (IC50) stood at 364 nM.

With `CC(=O)N[C@@H](C)CO[C@H]1C[C@H](COc2ncnc(OCc3cc(Cl)ccn3)c2Cl)C1` [Compound I-385], the IC50 worked out at 4 nM.

Consider `CC(=O)N[C@@H](C)CO[C@H]1C[C@H](COc2ncnc(OCc3ncccc3Cl)c2Cl)C1` [Compound I-386], for which the IC50 came out at 70 nM.

For the molecule `CC(=O)N[C@@H](C)CO[C@H]1C[C@H](COc2nccc3c2cnn3Cc2ccccc2)C1` [Compound I-387], the IC50 was found to be 392 nM.

Take `CC(=O)N[C@@H](C)CO[C@H]1C[C@H](COc2ncnc(OCc3ccccc3F)c2Cl)C1` [Compound I-388]: the IC50 was found to be 14 nM.

As to `CC(=O)N[C@@H](C)CO[C@H]1C[C@H](COc2ncnc(OCc3cccc(F)c3)c2Cl)C1` [Compound I-389], the half-maximal inhibitory concentration (IC50) came to 8 nM.

For the molecule `CC(=O)N[C@@H](C)CO[C@H]1C[C@H](COc2ncnc(OCc3ccc(F)cc3)c2Cl)C1` [Compound I-390], the IC50 amounted to 7 nM.

Regarding `CC(=O)N[C@@H](C)CO[C@H]1C[C@H](COc2ncnc(NCc3ccccc3)c2Cl)C1` [Compound I-391], the IC50 is 21 nM.

On to `CC(=O)N[C@@H](C)CO[C@H]1C[C@H](COc2ncnc(OCc3cccnc3)c2Cl)C1` [Compound I-392], for which the concentration for half-maximal inhibition (IC50) is 69 nM.

`CC(=O)N[C@@H](C)CO[C@H]1C[C@H](COc2ncnc(OCc3ccncc3)c2Cl)C1` [Compound I-393]: the IC50 amounted to 155 nM.

For `CC(=O)N[C@@H](C)CO[C@H]1C[C@](C)(COc2nccc(-c3ccc(F)cc3)c2Cl)C1` [Compound I-394], the IC50 amounted to 18 nM.

In the case of `CC(=O)N[C@@H](C)CO[C@H]1C[C@H](COc2nccc(OCc3ccccc3)c2Cl)C1` [Compound I-395], the IC50 came out at 7 nM.

For the molecule `CC(=O)N[C@@H](C)CO[C@H]1C[C@H](COc2ncnc(OCc3ccc(Cl)cn3)c2Cl)C1` [Compound I-396], the IC50 stood at 8 nM.

As to `CC(=O)N[C@@H](C)CO[C@H]1C[C@H](COc2ncnc(Oc3noc4ccccc34)c2Cl)C1` [Compound I-397], the IC50 is 31 nM.

As to `CC(=O)N[C@@H](C)CO[C@H]1C[C@H](COc2ncnc(-n3oc4ccccc4c3=O)c2Cl)C1` [Compound I-398], the IC50 came out at 115 nM.

On to `CC(=O)N[C@@H](C)CO[C@H]1C[C@H](COc2ncnc(Oc3nsc4ccccc34)c2Cl)C1` [Compound I-399], for which the IC50 turned out to be 40 nM.

For the molecule `CC(=O)N[C@@H](C)CO[C@]1(C)C[C@@H](COc2nccc(-c3ccc(F)cc3)c2Cl)C1` [Compound I-400], the half-maximal inhibitory concentration (IC50) stood at 17 nM.

On to `CC(=O)N[C@@H](C)CO[C@H]1C[C@H](COc2nccc(NCc3ccccc3)c2Cl)C1` [Compound I-401], for which the IC50 turned out to be 23 nM.

For the molecule `CC(=O)N[C@@H](C)CO[C@H]1C[C@H](COc2ncnc(N(C)Cc3ccccc3)c2Cl)C1` [Compound I-402], the IC50 was 83 nM.

Take `CC(=O)N[C@@H](C)CO[C@H]1C[C@H](COc2ncnc(OCc3ccc(C)cn3)c2Cl)C1` [Compound I-403]: the IC50 came out at 43 nM.

On to `COc1cccc(COc2ncnc(OC[C@H]3C[C@H](OC[C@H](C)NC(C)=O)C3)c2Cl)n1` [Compound I-404], for which the IC50 was 676 nM.

On to `CC(=O)N[C@@H](C)CO[C@H]1C[C@H](COc2ncnc(OCc3ncccc3F)c2Cl)C1` [Compound I-405], for which the IC50 was found to be 62 nM.

For the molecule `CC(=O)N[C@@H](C)CO[C@H]1C[C@H](COc2ncnc(OCc3cnccn3)c2Cl)C1` [Compound I-406], the half-maximal inhibitory concentration (IC50) was found to be 131 nM.

Consider `CCOc1ccc(COc2ncnc(OC[C@H]3C[C@H](OC[C@H](C)NC(C)=O)C3)c2Cl)cc1` [Compound I-407], for which the IC50 worked out at 533 nM.

Turning to `CCOc1cccc(COc2ncnc(OC[C@H]3C[C@H](OC[C@H](C)NC(C)=O)C3)c2Cl)c1` [Compound I-408], the IC50 stood at 465 nM.

As to `CC(=O)N[C@@H](C)CO[C@H]1C[C@H](COc2ncnc(OCc3nccs3)c2Cl)C1` [Compound I-409], the IC50 was 74 nM.

On to `CC(=O)N[C@@H](C)CO[C@H]1C[C@H](COc2ncnc(OCc3ncc(C)s3)c2Cl)C1` [Compound I-410], for which the IC50 was 15 nM.

In the case of `CC(=O)N[C@@H](C)CO[C@H]1C[C@H](COc2ncnc(OCc3csc(Cl)n3)c2Cl)C1` [Compound I-411], the IC50 worked out at 937 nM.

Regarding `CC(=O)N[C@@H](C)CO[C@H]1C[C@H](COc2ncnc(OCc3cscn3)c2Cl)C1` [Compound I-412], the IC50 is 42 nM.

In the case of `CC(=O)N[C@@H](C)CO[C@H]1C[C@H](COc2nccc(N(C)Cc3ccccc3)c2Cl)C1` [Compound I-413], the IC50 was 84 nM.

As for `CC(=O)N[C@@H](C)CO[C@H]1C[C@H](COc2nccc(N3CCCC3C)c2Cl)C1` (stereo partly drawn) [Compound I-414], the IC50 stood at 59 nM.

For `CC(=O)N[C@@H](C)CO[C@H]1C[C@H](COc2ncnc(OCc3ccccc3)c2C)C1` [Compound I-415], the IC50 came out at 18 nM.
